Data reported in patent US12115161B2, “Prophylactic and/or therapeutic agent for inflammatory diseases which contains pyrrolopyrimidine compound as active ingredient” (KEIO UNIVERSITY, priority 2018, dated 2024).

Columns and labels:
[1] = tested on: peripheral blood mononuclear cells (PBMC); test: IgG production by B cell-stimulation culture using peripheral blood mononuclear cells (Example 5); type: cell-based, human; conditions: 7 days (results not shown)
Protocol: Peripheral blood mononuclear cells were isolated from normal healthy human peripheral blood by density gradient centrifugation using Ficoll. In the presence of 5 μg/mL anti-human IgM antibody, 1 μg/mL anti-human CD40 antibody, 30 ng/mL recombinant human IL-21, 30 ng/mL recombinant human BAFF, and Compound A (0.4 μM, 2 μM, and 10 μM), 2×10^5 peripheral blood mononuclear cells were cultured using a 10% FBS/RPMI 1640 culture medium in a 5% CO2 environment at 37° C. for seven days. The cells were cultured in 96-well round-bottom culture plates in a scale of 200 μL per well. Seven days later, the supernatant was removed and the culture supernatant was collected to determine the IgG content in the culture supernatant by ELISA. As controls, experiments in the case of not adding Compound A and the case of adding neither Compound A nor BAFF were also performed. Moreover, for comparison with the effects of Compound A, experiments using BIK-13 instead of Compound A were also performed.

[2] = tested on: human peripheral blood monocytes; test: IL-6 production inhibitory effect of BAFF from human peripheral blood monocytes (Example 3); type: cell-based; conditions: for IL-6 production inhibitory effect compared with the control: 4 days
Protocol: Monocytes were isolated from normal healthy human peripheral blood using CD14-microbeads. In the presence of 2 μg/mL recombinant human BAFF (same as Example 2) and Compound A (2 μM and 10 μM) (entire culture scale of 24-well culture plates at 2 mL/well), 5×10^5 of the isolated monocytes were cultured using a 10% FBS/RPMI 1640 culture medium in a 5% CO2 environment at 37° C. for four days. Four days later, the supernatant was removed to determine the IL-6 content in the culture supernatant by IL-6 specific ELISA. For comparison, experiments using BIK-13 instead of Compound A were also performed.

[3] = tested on: human monocytic cell line THP-1; test: IL-6 production inhibitory effect of BAFF in IFNγ-precultured THP-1 cells (Example 2); type: cell-based; conditions: for relative amount of IL-6 production: 30 μM, control (BAFF only) = 100%
Protocol: In 24-well plates (manufactured by Corning Inc.) in a RPMI-1640 culture medium (produced by ATCC) containing 10% fetal bovine serum (produced by JRH Biosciences), 5×10^5 cells of human monocytic leukemia cell line THP-1 (obtained from a bioresource bank, Japanese Collection of Research Bioresource) were seeded per well. IFNγ (interferon γ, produced by BD Pharmingen) was added to a final concentration of 200 ng/mL and cultured in a 5% CO2 environment at 37° C. After four days of culture, the culture broth in each well was removed and the cells were washed twice with the culture medium, followed by addition of the culture medium containing a final concentration of 2 μg/mL of recombinant human soluble BAFF (produced by Chemicon), and respective test compounds were added to a final concentration of 20 μM or 2 μM to continue the culture in the same conditions. After three days of culture, the culture supernatant was collected to determine the IL-6 content in the supernatant by ELISA. For ELISA, mouse anti-human IL-6 antibody (produced by BD Pharmingen), biotin-labeled anti-human IL-6 antibody (produced by BD Pharmingen), and HRP-labeled streptavidin (produced by BD Pharmingen) were used. The test compound groups were used by purchasing from Asinex. In the test system, Compound 27 (BIK-13) in PTL 1 was used as a positive control (compound with inhibitory action on IL-6 production by monocytic cells). BIK-13 was the same as the compound of ADM 12880656 by Asinex Japan Inc.
In the presence of 200 ng/mL recombinant human IFNγ (same as Example 1) (entire culture scale of 24-well culture plates at 2 mL/well), 5×10^5 cells of human monocytic cell line THP-1 (same as Example 1) were cultured using a 10% FBS/RPMI 1640 culture medium in a 5% CO2 environment at 37° C. for four days (96 hours). Four days later, an operation of removing the supernatant, adding a new medium, leaving it still in an incubator, and removing the supernatant was repeated twice. After removing the supernatant, recombinant human BAFF (2 μg/mL) was dissolved together with Compound A (ADM 12880492, Asinex Japan Inc.) or Compound B (ADM 12880696, Asinex Japan Inc.) in a medium and added to the culture wells to be cultured for three days. Three days later, the culture supernatant was collected to determine the IL-6 content in the culture supernatant by IL-6 specific ELISA. As a control, instead of Compound A or Compound B, BIK-13 was used.

[4] = tested on: peripheral blood monocytes and B cells from Sjögren syndrome patients; test: IgG production in coculture of BAFF-stimulated peripheral blood monocytes and B cells (Example 4); type: cell-based, human; conditions: for IL-6 production inhibitory effect compared with the control: 4 days
Protocol: Monocytes were isolated from Sjögren syndrome patient peripheral blood using CD14 microbeads, and B cells were isolated from the peripheral blood using CD19 microbeads. Using Transwell® culture plates, 2×10^5 monocytes per well were seeded in the upper plate and 1×10^5 B cells in the lower plate to be cultured in the presence of 2 μg/mL recombinant human BAFF (same as Example 2) and Compound A (1 μM and 10 μM) using a 10% FBS/RPMI 1640 culture medium in a 5% CO2 environment at 37° C. for four days (coculture of the peripheral blood monocytes and the B cells via a membrane). Four days later, the supernatant was removed and the culture supernatant was collected to determine the IgG content in the culture supernatant by ELISA. As controls, experiments in the case of not adding Compound A and the case of adding neither Compound A nor BAFF were also performed. Moreover, for comparison with the effects of Compound A, experiments using BIK-13 instead of Compound A were also performed.

| SMILES | IL-6 production inhibitory effect compared with the control ([1]; 0.4 μM and 2 μM) | IL-6 production inhibitory effect compared with the control ([1]; 10 μM) | IL-6 production inhibitory effect compared with the control ([2]; 2 μM with 2 μg/mL human BAFF) | IL-6 production inhibitory effect compared with the control ([2]; 10 μM with 2 μg/mL human BAFF) | relative amount of IL-6 production ([2]; 10 μM, control = 100%) [%] | IL-6 production inhibitory effect compared with adding no compound ([3]; 1.2 μM with 2 μg/mL human BAFF, 3 days) | IL-6 production inhibitory effect compared with adding no compound ([3]; 6 μM and 30 μM with 2 μg/mL human BAFF, 3 days) | relative amount of IL-6 production [3] | IL-6 production inhibitory effect compared with the control ([4]; 1 μM with 2 μg/mL human BAFF) | IL-6 production inhibitory effect compared with the control ([4]; 10 μM with 2 μg/mL human BAFF) | cancellation of the IgG antibody production enhancement by BAFF ([4]; 10 μM, compared with adding neither compound nor BAFF) | IL-6 production inhibitory effect compared with the control ([3]; 0.04 μM, 0.2 μM and 1 μM together with 2 μg/mL human BAFF, 3 days, ELISA) | IL-6 production inhibitory effect compared with BIK-13 ([3]; THP-1 system of Example 2) |
| --- | --- | --- | --- | --- | --- | --- | --- | --- | --- | --- | --- | --- | --- |
| Cc1c(C)n(C2CCCC2)c2ncnc(OC3CCN(C(=O)CN4CCCC4=O)CC3)c12 [BIK-13, reference compound] | no significant difference | significant (p<0.01) IL-6 production inhibitory effect | no significant difference | significant (p<0.05) IL-6 production inhibitory effect | 80.2±14.5 | no significant difference | significant (p<0.001) IL-6 production inhibitory effects | 52.8±2.2% | no significant difference | significant (p<0.01) IL-6 production inhibitory effect | not completely cancelled |  |  |
| Cc1c(C)n(C2CCCC2)c2ncnc(OC3CCN(CCC#N)CC3)c12 [Compound B, 3-[4-{(7-cyclopentyl-5,6-dimethyl-7H-pyrrolo[2,3-d]pyrimidin-4-yl)oxy}piperidin-1-yl]propanenitrile] |  |  |  |  |  |  |  | below 50% |  |  |  | significant (p<0.001) IL-6 production inhibitory effects | stronger IL-6 production inhibitory effect than BIK-13 |
